ChEMBL document CHEMBL3745709, “Synthesis of novel ethyl 1-ethyl-6-fluoro-7-(fatty amido)-1,4-dihydro-4-oxoquinoline-3-carboxylate derivatives and their biological evaluation” (Bioorg Med Chem Lett, 2016)
≈ marks a conversion by molar mass, not a printed value.

Experiments:
[1] = system: Candida albicans; test: Antifungal activity against Candida albicans MTCC 3017 […] after 24 hrs at 30 degC by well diffusion method; format: functional; settings: MTCC 3017, 24 h
[2] = system: A549; test: Cytotoxicity against human A549 cells assessed as reduction in cell viability by MTT assay; format: functional, cell-based
[3] = system: Staphylococcus aureus; test: Antibacterial activity against Staphylococcus aureus MLS-16 MTCC 2940 assessed as inhibition zone after 24 hrs at 30 degC by well diffusion method; format: functional; settings: MLS-16 MTCC 2940, 24 h
[4] = Cytotoxicity against human SKOV3 cells assessed as reduction in cell viability by MTT assay; format: functional, cell-based; settings: SK-OV-3
[5] = system: MCF7; test: Cytotoxicity against human MCF7 cells assessed as reduction in cell viability by MTT assay; format: functional, cell-based
[6] = system: Bacillus subtilis; test: Antibacterial activity against Bacillus subtilis MTCC 121 assessed as inhibition zone after 24 hrs at 30 degC by well diffusion method; format: functional; settings: MTCC 121, 24 h
[7] = system: Micrococcus luteus; test: Antibacterial activity against Micrococcus luteus MTCC 2470 assessed as inhibition zone after 24 hrs at 30 degC by well diffusion method; format: functional; settings: MTCC 2470, 24 h
[8] = system: Raoultella planticola; test: Antibacterial activity against Klebsiella planticola MTCC 530 assessed as inhibition zone after 24 hrs at 30 degC by well diffusion method; format: functional; settings: MTCC 530, 24 h
[9] = system: Escherichia coli; test: Antibacterial activity against Escherichia coli MTCC 739 assessed as inhibition zone after 24 hrs at 30 degC by well diffusion method; format: functional; settings: MTCC 739, 24 h
[10] = system: Staphylococcus aureus; test: Antibacterial activity against Staphylococcus aureus MTCC 96 […] after 24 hrs at 30 degC by well diffusion method; format: functional; settings: MTCC 96, 24 h
[11] = Antioxidant activity assessed as DPPH free radical scavenging activity; format: physicochemical
[12] = Cytotoxicity against human DU145 cells assessed as reduction in cell viability by MTT assay; format: functional, cell-based; settings: DU-145
[13] = system: Pseudomonas aeruginosa; test: Antibacterial activity against Pseudomonas aeruginosa MTCC 2453 assessed as inhibition zone after 24 hrs at 30 degC by well diffusion method; format: functional; settings: MTCC 2453, 24 h
[14] = system: IMR-90; test: Selectivity index, ratio of IC50 for human IMR90 cells to IC50 for human MCF7 cells; format: functional
[15] = Cytotoxicity against human IMR90 cells assessed as reduction in cell viability by MTT assay; format: cell-based; settings: IMR-90
[16] = system: SK-OV-3; test: Selectivity index, ratio of IC50 for human IMR90 cells to IC50 for human SKOV3 cells; format: functional
[17] = system: A549; test: Selectivity index, ratio of IC50 for human IMR90 cells to IC50 for human A549 cells; format: functional
[18] = system: IMR-90; test: Selectivity index, ratio of IC50 for human IMR90 cells to IC50 for human DU145 cells; format: functional

| MIC [1] | MIC [3] | MIC [6] | MIC [7] | MIC [9] | MIC [10] | EC50 [11] | MIC [13] | SMILES | IC50 [2] | IC50 [4] | IC50 [5] | MIC [8] | IC50 [12] | Ratio IC50 [14] | IC50 [15] | Ratio IC50 [16] | Ratio IC50 [17] | Ratio IC50 [18] |
| --- | --- | --- | --- | --- | --- | --- | --- | --- | --- | --- | --- | --- | --- | --- | --- | --- | --- | --- |
| > 125 µg/mL | > 125 µg/mL | > 125 µg/mL | > 125 µg/mL | > 125 µg/mL | > 125 µg/mL | 109.8 µg/mL (≈ 271 µM) | > 125 µg/mL | CCCCCCCC(=O)Nc1cc2c(cc1F)c(=O)c(C(=O)OCC)cn2CC | 9.2 µM | 8.1 µM | 7.9 µM | > 125 µg/mL | 10.1 µM | 11.5 | 91.2 µM | 11.2 | 9.9 | 9 |
| > 125 µg/mL | > 125 µg/mL | > 125 µg/mL | > 125 µg/mL | > 125 µg/mL | > 125 µg/mL | 286 µg/mL (≈ 585 µM) | > 125 µg/mL | CCCCCCCCCCCCCC(=O)Nc1cc2c(cc1F)c(=O)c(C(=O)OCC)cn2CC | 9.6 µM | 8.2 µM | 9.1 µM | > 125 µg/mL | 10.4 µM | 9.4 | 86.4 µM | 10.5 | 9 | 8.3 |
| > 125 µg/mL | > 125 µg/mL | > 125 µg/mL | > 125 µg/mL | > 125 µg/mL | > 125 µg/mL | 750.7 µg/mL (≈ 1380 µM) | > 125 µg/mL | CCCCCCCC/C=C/CCCCCCCC(=O)Nc1cc2c(cc1F)c(=O)c(C(=O)OCC)cn2CC |  |  |  | > 125 µg/mL |  |  |  |  |  |  |

The remaining lines, values behind:

| SMILES | MIC [1] | MIC [3] | MIC [6] | MIC [7] | MIC [9] | MIC [10] | EC50 [11] | MIC [13] | IC50 [2] | IC50 [4] | IC50 [5] | MIC [8] | IC50 [12] | Ratio IC50 [14] | IC50 [15] | Ratio IC50 [16] | Ratio IC50 [17] | Ratio IC50 [18] |
| --- | --- | --- | --- | --- | --- | --- | --- | --- | --- | --- | --- | --- | --- | --- | --- | --- | --- | --- |
| C=CCCCCCCCCC(=O)Nc1cc2c(cc1F)c(=O)c(C(=O)OCC)cn2CC | > 125 µg/mL | > 125 µg/mL | > 125 µg/mL | > 125 µg/mL | > 125 µg/mL | > 125 µg/mL | 147.5 µg/mL (≈ 332 µM) | > 125 µg/mL | 66.5 µM | 91.2 µM | 64.6 µM | > 125 µg/mL | 87.3 µM |  |  |  |  |  |
| CCCCCCCCCCCC(=O)Nc1cc2c(cc1F)c(=O)c(C(=O)OCC)cn2CC | > 125 µg/mL | > 125 µg/mL | > 125 µg/mL | > 125 µg/mL | > 125 µg/mL | > 125 µg/mL | Not Active | > 125 µg/mL | 10.3 µM | 9.8 µM | 11.2 µM | > 125 µg/mL | 12.1 µM | 7.1 | 79.8 µM | 8.1 | 7.7 | 6.6 |
| CCCCCCCCCCCCCCCCCC(=O)Nc1cc2c(cc1F)c(=O)c(C(=O)OCC)cn2CC | > 125 µg/mL | > 125 µg/mL | > 125 µg/mL | > 125 µg/mL | > 125 µg/mL | > 125 µg/mL | 798.8 µg/mL (≈ 1470 µM) | > 125 µg/mL | 32.6 µM | 35.2 µM | 28.4 µM | > 125 µg/mL | 37.1 µM |  |  |  |  |  |
